In PMC12344693, “Human Milk Oligosaccharides Multivalently Presented on Defined Synthetic Neo-Glycoproteins Are Nanomolar Ligands of Tandem-Repeat Galectins” (Biomacromolecules, 2025):
Values joined by “and” are separate entries in the source; they are usually repeats but may differ in a detail not shown here. Equal entries are not always repeated. Where two headings read alike, the source gives them in different places.

Assays:
Gal-9 = biological target: T1, Gal-9 (Homo sapiens, UniProt O00182, A222P/DEL149-219); experiment: competitive ELISA, inhibition of galectin binding to immobilized asialofetuin; conditions: competitive ELISA vs immobilized ASF; 0.5 μM Gal-9; at least quadruplicate
T1 construct: Full-length recombinant human galectins (Gal-1, Gal-3, Gal-4, Gal-8, and Gal-9) for ELISA assays; made in house; host or cells: E. coli Rosetta 2(DE3)pLysS
T1 sequence (O00182 with tags, fused parts or gaps DEL149-219/A222P): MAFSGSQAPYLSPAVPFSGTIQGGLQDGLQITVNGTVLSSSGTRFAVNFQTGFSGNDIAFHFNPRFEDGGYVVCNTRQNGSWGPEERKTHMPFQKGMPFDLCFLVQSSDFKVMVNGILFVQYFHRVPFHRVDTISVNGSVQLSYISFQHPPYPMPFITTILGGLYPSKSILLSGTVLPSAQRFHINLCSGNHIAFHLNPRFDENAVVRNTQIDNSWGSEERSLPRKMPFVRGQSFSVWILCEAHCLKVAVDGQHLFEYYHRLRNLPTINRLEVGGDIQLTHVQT
Procedure: (§1) The inhibitory potential of the prepared glycan library and the respective multivalent neo-glycoproteins with Gal-1, -3, -4, -8, and -9 was evaluated using a competitive ELISA assay as described by Vašíček et al. Asialofetuin (ASF; 0.1 μM in PBS, 50 μL/well) was immobilized onto microtiter plates (Nunc Immuno Sorb, ThermoFisher Scientific, USA) overnight at 4 °C. Wells were subsequently washed three times with PBS containing 0.05%, v/v, Tween-20 (250 μL/wash). Each assay step was followed by a washing step to ensure the thorough removal of unbound reagents. Blocking was performed using 2%, w/v, BSA in PBS (250 μL/well) for 1 h at room temperature. Serial dilutions of the inhibitors prepared in EPBS buffer (PBS containing 2 mM EDTA) were incubated with a constant concentration of galectin (2.5 μM Gal-1, Gal-3, and Gal-4; 0.5 μM Gal-8 and Gal-9) for 2 h. […] Residual galectin bound to ASF was detected using the anti-His-tag antibody conjugated to horseradish peroxidase (Santa Cruz Biotechnology, 1:999 dilution in PBS). Detection was achieved by adding 50 μL of TMB One substrate solution (Kem-En-Tech, Denmark), which developed a blue color that turned yellow upon the addition of 50 μL of 3 M HCl. Absorbance at 450 nm was measured using a microplate reader (Sunrise, Tecan Group Ltd., Switzerland) reflecting the amount of galectin bound to the wells. Half-maximal inhibitory concentration (IC50) values were calculated by nonlinear regression (dose–response inhibition with variable slope) of sigmoidal curves using GraphPad Prism version 8.4.3 (GraphPad Software, USA).
(§2) Serially diluted ligands and NGPs were incubated with individual galectin species in the wells coated with asialofetuin (ASF). The remaining galectin bound to the immobilized ASF was detected using an anti-His6 antibody.

Gal-1 = Gal-1 (Homo sapiens, UniProt P09382, C3S); experiment: as above
Gal-1, sequence (P09382 whole entry C3S): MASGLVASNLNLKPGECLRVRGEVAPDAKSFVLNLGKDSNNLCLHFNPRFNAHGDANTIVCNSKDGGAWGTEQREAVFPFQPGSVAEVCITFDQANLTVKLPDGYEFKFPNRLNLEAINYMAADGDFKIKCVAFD
Procedure: as §1, §2

Gal-3 = Gal-3 (Homo sapiens, UniProt P17931); experiment: as above
Gal-3, sequence (P17931 whole entry): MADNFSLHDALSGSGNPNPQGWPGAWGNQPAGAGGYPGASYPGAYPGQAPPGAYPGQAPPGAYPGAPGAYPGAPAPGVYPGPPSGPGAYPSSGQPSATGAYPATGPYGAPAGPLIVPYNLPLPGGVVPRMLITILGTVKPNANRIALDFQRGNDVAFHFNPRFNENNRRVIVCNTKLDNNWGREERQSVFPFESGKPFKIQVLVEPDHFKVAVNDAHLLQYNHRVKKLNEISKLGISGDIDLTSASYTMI
Procedure: as §1, §2

Gal-8 = biological target: T2, Gal-8 (Homo sapiens, UniProt O00214); experiment: as above; conditions: competitive ELISA vs immobilized ASF; 0.5 μM Gal-8; at least quadruplicate
T2 construct: Full-length recombinant human galectins (Gal-1, Gal-3, Gal-4, Gal-8, and Gal-9) for ELISA assays; made in house; host or cells: E. coli Rosetta 2(DE3)pLysS
T2 sequence (O00214 1-317): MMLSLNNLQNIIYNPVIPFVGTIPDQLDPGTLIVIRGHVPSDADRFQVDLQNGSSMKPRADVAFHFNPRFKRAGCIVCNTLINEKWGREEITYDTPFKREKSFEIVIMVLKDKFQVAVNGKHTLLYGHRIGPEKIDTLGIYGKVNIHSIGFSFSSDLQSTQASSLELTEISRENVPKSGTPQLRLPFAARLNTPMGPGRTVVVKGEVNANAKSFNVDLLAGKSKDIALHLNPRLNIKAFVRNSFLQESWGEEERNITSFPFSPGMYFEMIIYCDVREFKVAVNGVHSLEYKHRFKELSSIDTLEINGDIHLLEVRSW
Procedure: as §1, §2

Gal-4 [1] = biological target: T3, Gal-4 (Homo sapiens, UniProt P56470); experiment: as above; conditions: competitive ELISA vs immobilized ASF; 2.5 μM Gal-4; at least quadruplicate
T3 construct: Full-length recombinant human galectins (Gal-1, Gal-3, Gal-4, Gal-8, and Gal-9) for ELISA assays; made in house; host or cells: E. coli Rosetta 2(DE3)pLysS
T3 sequence (P56470 1-323): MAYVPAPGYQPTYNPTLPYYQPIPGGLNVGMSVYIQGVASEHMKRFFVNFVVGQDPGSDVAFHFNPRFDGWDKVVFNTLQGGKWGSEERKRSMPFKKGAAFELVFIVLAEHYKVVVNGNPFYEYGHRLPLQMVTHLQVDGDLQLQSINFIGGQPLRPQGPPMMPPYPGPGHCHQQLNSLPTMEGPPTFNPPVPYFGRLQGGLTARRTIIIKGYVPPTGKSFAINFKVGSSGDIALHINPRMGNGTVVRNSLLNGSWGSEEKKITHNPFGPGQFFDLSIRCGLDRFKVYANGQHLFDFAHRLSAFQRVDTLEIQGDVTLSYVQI
Procedure: as §1, §2

Gal-4 [2] = biological target: T3, Gal-4; set-up: method as in previously published by us; conditions: competitive ELISA vs immobilized ASF; footnote b; ref previously published by us; cited from earlier work

**Q.** With CC(=O)N[C@@H]1[C@@H](O)[C@H](O[C@@H]2O[C@H](CO)[C@H](O)[C@H](O[C@@H]3O[C@H](CO)[C@@H](O[C@@H]4O[C@H](CO)[C@H](O)[C@H](O)[C@H]4O)[C@H](O)[C@H]3NC(C)=O)[C@H]2O)[C@@H](CO)O[C@H]1NC(=S)NCCNC(=O)OC(C)(C)C [Compound 10, (tert-Butoxycarbonylamino)ethylthioureidyl β-D-galactopyranosyl-(1→4)-2-acetamido-2-deoxy-β-D-glucopyranosyl-(1→3)-β-D-galactopyranosyl-(1→4)-2-acetamido-2-deoxy-β-D-glucopyranoside] as the compound, how does the IC50 (Gal-9) read?
**A.** 52 ± 23 µM

**Q.** And the IC50 (Gal-1)?
**A.** 106 ± 7 µM

**Q.** And the IC50 (Gal-3)?
**A.** 12 ± 1 µM

**Q.** And the IC50 (Gal-8)?
**A.** 406 ± 46 µM

**Q.** What about the IC50 (Gal-4 [1]) of the same compound?
**A.** 2390 ± 490 µM

**Q.** Which IC50 (Gal-9) does the source give for CC(=O)N[C@H]1[C@H](O[C@H]2[C@@H](O)[C@@H](CO)O[C@@H](O[C@H]3[C@H](O)[C@@H](O)[C@H](NC(=S)NCCNC(=O)OC(C)(C)C)O[C@@H]3CO)[C@@H]2O)O[C@H](CO)[C@@H](O)[C@@H]1O[C@@H]1O[C@H](CO)[C@H](O)[C@H](O)[C@H]1O [Compound 3, (tert-Butoxycarbonylamino)ethylthioureidyl β-D-galactopyranosyl-(1→3)-2-acetamido-2-deoxy-β-D-glucopyranosyl-(1→3)-β-D-galactopyranosyl-(1→4)-β-D-glucopyranoside] here?
**A.** 230 ± 43 µM

**Q.** What about the IC50 (Gal-1) of the same compound?
**A.** > 500 µM

**Q.** And the IC50 (Gal-3)?
**A.** 15.2 ± 1 µM

**Q.** What about the IC50 (Gal-8) of the same compound?
**A.** 820 ± 140 µM

**Q.** And the IC50 (Gal-4 [1])?
**A.** 108 ± 16 µM

**Q.** For CC(=O)N[C@H]1[C@H](O[C@H]2[C@@H](O)[C@@H](CO)O[C@@H](O[C@H]3[C@H](O)[C@@H](O)[C@H](NC(=S)NCCNC(=O)OC(C)(C)C)O[C@@H]3CO)[C@@H]2O)O[C@H](CO)[C@@H](O[C@@H]2O[C@H](CO)[C@H](O)[C@H](O)[C@H]2O)[C@@H]1O [Compound 4, (tert-Butoxycarbonylamino)ethylthioureidyl β-D-galactopyranosyl-(1→4)-2-acetamido-2-deoxy-β-D-glucopyranosyl-(1→3)-β-D-galactopyranosyl-(1→4)-β-D-glucopyranoside], which IC50 (Gal-9) is on record?
**A.** 170 µM and 168 µM

**Q.** What about the IC50 (Gal-1) of the same compound?
**A.** 436 ± 41 µM

**Q.** What about the IC50 (Gal-3) of the same compound?
**A.** 7.3 ± 1.6 µM

**Q.** And the IC50 (Gal-4 [2])?
**A.** 620 ± 100 µM

**Q.** What about the IC50 (Gal-8) of the same compound?
**A.** 130 ± 30 µM

**Q.** With CC(=O)N[C@@H]1[C@@H](O)[C@H](O[C@@H]2O[C@H](CO)[C@H](O)[C@H](O)[C@H]2O)[C@@H](CO)O[C@H]1NC(=S)NCCNC(=O)OC(C)(C)C [Compound 7, Galβ4GlcNAc-tBoc] as the compound, how does the IC50 (Gal-9) read?
**A.** 2840 ± 650 µM

**Q.** What about the IC50 (Gal-1) of the same compound?
**A.** 79 ± 9 µM

**Q.** And the IC50 (Gal-3)?
**A.** 47 ± 6 µM

**Q.** What about the IC50 (Gal-8) of the same compound?
**A.** 18700 µM

**Q.** What about the IC50 (Gal-4 [1]) of the same compound?
**A.** 8630 ± 530 µM

**Q.** For CC(=O)N[C@H]1[C@H](O[C@H]2[C@@H](O)[C@@H](CO)O[C@@H](O[C@H]3[C@H](O)[C@@H](O)[C@H](NC(=S)NCCNC(=O)OC(C)(C)C)O[C@@H]3CO)[C@@H]2O)O[C@H](CO)[C@@H](O[C@@H]2O[C@H](CO)[C@H](O)[C@H](O)[C@H]2NC(C)=O)[C@@H]1O [Compound 5, (tert-Butoxycarbonylamino)ethylthioureidyl 2-acetamido-2-deoxy-β-D-galactopyranosyl-(1→4)-2-acetamido-2-deoxy-β-D-glucopyranosyl-(1→3)-β-D-galactopyranosyl-(1→4)-2-β-D-glucopyranoside], which IC50 (Gal-9) is on record?
**A.** 326 ± 26 µM

**Q.** And the IC50 (Gal-1)?
**A.** 435 ± 102 µM

**Q.** What about the IC50 (Gal-3) of the same compound?
**A.** 2.2 ± 1.3 µM

**Q.** What about the IC50 (Gal-8) of the same compound?
**A.** 75 ± 9 µM

**Q.** What about the IC50 (Gal-4 [1]) of the same compound?
**A.** 1620 ± 260 µM

**Q.** Which results are given for CC(=O)N[C@@H]1[C@@H](O)[C@H](O[C@@H]2O[C@H](CO)[C@H](O)[C@H](O[C@@H]3O[C@H](CO)[C@@H](O)[C@H](O[C@@H]4O[C@H](CO)[C@H](O)[C@H](O)[C@H]4O)[C@H]3NC(C)=O)[C@H]2O)[C@@H](CO)O[C@H]1NC(=S)NCCNC(=O)OC(C)(C)C [Compound 9, (tert-Butoxycarbonylamino)ethylthioureidyl β-D-galactopyranosyl-(1→3)-2-acetamido-2-deoxy-β-D-glucopyranosyl-(1→3)-β-D-galactopyranosyl-(1→4)-2-acetamido-2-deoxy-β-D-glucopyranoside]?
**A.** IC50 (Gal-9): > 5000 µM; IC50 (Gal-1): > 500 µM; IC50 (Gal-3; read-out: IC50 Gal-3, Table S9, competitive ELISA vs immobilized ASF, […] Gal-3, unit inferred): 27 ± 4 µM; IC50 (Gal-8): > 5000 µM; IC50 (Gal-4 [1]): 2380 ± 670 µM

**Q.** What does the source list for CC(=O)N[C@@H]1[C@@H](O)[C@H](O[C@@H]2O[C@H](CO)[C@H](O)[C@H](O[C@@H]3O[C@H](CO)[C@@H](O[C@@H]4O[C@H](CO)[C@H](O)[C@H](O)[C@H]4NC(C)=O)[C@H](O)[C@H]3NC(C)=O)[C@H]2O)[C@@H](CO)O[C@H]1NC(=S)NCCNC(=O)OC(C)(C)C [Compound 11, (tert-Butoxycarbonylamino)ethylthioureidyl 2-acetamido-2-deoxy-β-D-galactopyranosyl-(1→4)-2-acetamido-2-deoxy-β-D-glucopyranosyl-(1→3)-β-D-galactopyranosyl-(1→4)-2-acetamido-2-deoxy-β-D-glucopyranoside]?
**A.** IC50 (Gal-9): 260 ± 75 µM; IC50 (Gal-1): 98 ± 22 µM; IC50 (Gal-3): 2.7 ± 2.4 µM; IC50 (Gal-8): 270 ± 85 µM; IC50 (Gal-4 [1]): 2010 ± 1000 µM

**Q.** For CC(C)(C)OC(=O)NCCNC(=S)N[C@@H]1O[C@H](CO)[C@@H](O[C@@H]2O[C@H](CO)[C@H](O)[C@H](O)[C@H]2O)[C@H](O)[C@H]1O [Compound 1, (tert-butoxycarbonylamino)ethylthioureidyl β-D-galactopyranosyl-(1→4)-β-D-glucopyranoside], which IC50 (Gal-9) is on record?
**A.** 2180 ± 670 µM

**Q.** What about the IC50 (Gal-1) of the same compound?
**A.** 286 ± 23 µM

**Q.** What about the IC50 (Gal-3) of the same compound?
**A.** 136 ± 18 µM

**Q.** What about the IC50 (Gal-4 [2]) of the same compound?
**A.** 2520 ± 180 µM

**Q.** What about the IC50 (Gal-8) of the same compound?
**A.** 2870 ± 470 µM
